This is an account of results in patent publication US10766889B2, “Aryl-2,2′-tandem bisthiazole compound and preparation method and use thereof” (SHANGHAI INSTITUTE OF MATERIA MEDICA, CHINESE ACADEMY OF …, priority 2016, dated 2020).

Common to all, as to type: cell-based
One assay deals with Liver cancer BEL-7404. As to the kind of experiment: Tumor cell proliferation inhibition, SRB. As to conditions: Homo sapiens, 72 h, read-out: IC50 (mean ± SD) Liver cancer BEL-7404.
The subject of a further assay is Lung Cancer A549. Kind of assay: Tumor cell proliferation inhibition, SRB. As to conditions: Homo sapiens, 72 h, read-out: IC50 (mean ± SD) Lung Cancer A549. The method, then: The antitumor activity test of the example compounds was carried out, and the in vitro antitumor activities of the compounds were evaluated by measuring the growth inhibitory activities of the compounds against a plurality of human tumor cell lines.
Tumor cells (except MDA-MB-231) were routinely cultured under 37° C., 5% CO2.
According to the cell growth rate, the tumor cells in the logarithmic growth phase were inoculated into 96-well culture plates at 90 μL/well, and adherently grown for 24 h and then added with 10 μL/well, and each concentration was set to three replicate wells, and DMSO vehicle controls and cell-free wells at corresponding concentration were also set. Tumor cells (except MDA-MB-231) were cultured for 72 h under conditions of 37° C. and 5% CO2 (MDA-MB-231 cells were cultured at 37° C. without CO2). […] The OD value at 450 nm was measured by a microplate reader. […] After dried by convert placing in an oven, 150 μL of 10 mM Tris solution was added into each well, and the OD value at 560 nm was measured by a microplate reader.
The inhibition rate of tumor cell proliferation was calculated according to the following formula. The half-inhibition amount IC50 value was calculated by Log it method. […]

The next assay has as its system stomach cancer MKN-74. As to the kind of experiment: Tumor cell proliferation inhibition, SRB. The following applies: Homo sapiens, 72 h, read-out: IC50 (mean ± SD) stomach cancer MKN-74.
Assay [1] deals with Embryonic lung cells MRC-5. As to the kind of experiment: Cell proliferation inhibition, SRB. As to conditions: Homo sapiens, MRC5, 72 h, read-out: IC50 (mean ± SD) Embryonic lung cells MRC-5.
Procedure: (§1) After the drug was applied, 10 μL of CCK-8 solution was added to each well in Ramos, HL-60, Molt-4, Raji, CCRF-CEM, and SU-DHL-6 tumor cell line experiments, and incubated at 37° C. for 2 h. The OD value at 450 nm was measured by a microplate reader. […] After dried by convert placing in an oven, the plate was taken out and 100 μL of SRB solution (4 mg/mL SRB powder dissolved in 1% glacial acetic acid) was added into each well. After standed at room temperature for 15 minutes, it was washed five times with 1% glacial acetic acid to completely remove the SRB which has not bounded to the plate protein. After dried by convert placing in an oven, 150 μL of 10 mM Tris solution was added into each well, and the OD value at 560 nm was measured by a microplate reader.
(§2) The inhibition rate of tumor cell proliferation was calculated according to the following formula. The half-inhibition amount IC50 value was calculated by Log it method. Inhibition rate=(control group OD value−administration group OD value)/control group OD value×100%. Each set of experiments was repeated three times independently, while 3 replicate wells per concentration.
Another assay concerns lymphoma Ramos. Kind of assay: Tumor cell proliferation inhibition, CCK-8. The following applies: Homo sapiens, 72 h, read-out: IC50 (mean ± SD) lymphoma Ramos.
The next assay concerns promyeloid leukemia HL60. Kind of assay: Tumor cell proliferation inhibition, CCK-8. As to conditions: Homo sapiens, HL-60, 72 h, read-out: IC50 (mean ± SD) promyeloid leukemia HL60.
Assay [2] deals with Acute lymphoblastic leukemia MOLT-4. As to the kind of experiment: Tumor cell proliferation inhibition, CCK-8. As to conditions: Homo sapiens, 72 h, read-out: IC50 (mean ± SD) Acute lymphoblastic leukemia MOLT-4.
Procedure: as §1, §2
Assay [3] has as its system Human blood lymphoma Raji. As to the kind of experiment: Tumor cell proliferation inhibition, CCK-8. As to conditions: 72 h, read-out: IC50 (mean ± SD) Human blood lymphoma Raji.
Procedure: as §1, §2
Assay [4] deals with Acute lymphocytic leukemia T lymphocyte CCRF. As to the kind of experiment: Tumor cell proliferation inhibition, CCK-8. As to conditions: Homo sapiens, 72 h, read-out: IC50 (mean ± SD) Acute lymphocytic leukemia T lymphocyte CCRF.
Procedure: as §1, §2
Another assay relates to Lung Cancer EBC-1. As to the kind of experiment: Tumor cell proliferation inhibition, SRB. As to conditions: Homo sapiens, EBC-1, 72 h, read-out: IC50 (mean ± SD) Lung Cancer EBC-1.

The structures appear in SMILES notation.

Procedure for Liver cancer BEL-7404: as §1, §2
Procedure for lymphoma Ramos: as §1, §2
Procedure for promyeloid leukemia HL60: as §1, §2
Procedure for stomach cancer MKN-74: as §1, §2

Turning to `Cc1[nH]c2ccccc2c1CCNCc1ccc(/C=C/C(=O)NO)cc1` [LBH589, panobinostat], the IC50 in the assay with Liver cancer BEL-7404 is 18.6 ± 1.51 nM; in the assay with Lung Cancer A549, 48.9 ± 7.01 nM; in the assay with stomach cancer MKN-74, 29.2 ± 0.97 nM; in [1], 76.9 ± 7.22 nM; in the assay on lymphoma Ramos, 7.14 ± 0.42 nM; with promyeloid leukemia HL60, 12.3 ± 0.24 nM. The half-maximal inhibitory concentration (IC50) in assay [2] amounted to 15 ± 8.18 nM; in [3], 12.3 ± 1.61 nM; in assay [4] it was 13.7 ± 0.93 nM.

Take `O=C(CCCCCCC(=O)Nc1ccccc1)NO` [SAHA, vorinostat]: the 50% inhibitory concentration (IC50) was determined as 2910 ± 678 nM with Lung Cancer A549 and 1550 ± 474 nM with Lung Cancer EBC-1.
